# Assay results reported in patent US20220153780A1, “SALT FORMS OF S-(N, N-DIETHYLCARBAMOYL)GLUTATHIONE” (Tonix Pharma Holdings Limited, priority 2019, published 2022).
# “Also recorded” adds a separate entry of the source.
# Legend:
# Type in all cases: physicochemical
# [1] = Water solubility observed in slurry experiment in water; settings: room temperature; equimolar L-lysine adduct
# Procedure: (§1) Carbamathione (50 mg) and one equivalent of L-Lysine were weighed in an 8-mL glass vial. Water (1-2 mL) was added and the mixture was allowed to stir for 24 hours. The equimolar mixture of carbamathione and L-Lysine was soluble in water and no precipitate was observed after 24 hours of stirring. The solution was left to evaporate at high temperature (60° C.) and an off-white solid was isolated. XRPD analysis confirmed the recovery of new derivative TNX1001-LLYS-NP01 (FIG. 15).
# The synthesis of the new derivative, TNX1001-LLYS-NP01, was carried out to facilitate its complete characterization. TNX1001-SM (150 mg) and L-Lysine (1 eq., 54 mg) were accurately weighed in a vial equipped with a magnetic stirring bar. H2O (3 ml) was added and the mixture was stirred at room temperature for 4 hours until a clear solution was obtained. The solution was filtered through a 0.45 μm RC-filter and the filtrate was evaporated at high temperature (60° C.). The recovered off-white solid was compared with the sample that was obtained from the slurry experiments in water by XRPD analysis to confirm the recovery of desired derivative (FIG. 26). The product was completely characterized using the methods outlined in Table 8 (see FIGS. 27-33).
# [2] = Stability studies, one month storage at controlled temperature and humidity, XRPD
# Procedure: Approximately 50 mg of the anhydrous carbamathione lysine salt was placed in a glass vial crimped with a PTFE/silicone septum and stored at the desired temperature and humidity for one month. Controlled humidity was realized employing saturated solutions of salts: NaCl for 75% RH at 40° C. and NaBr for 60% RH at 25° C. After storage, the samples were analyzed by XRPD analysis. Each stability test was performed in duplicate.
# [3] = Dynamic vapor sorption (DVS) analysis
# Procedure: The anhydrous carbamathione lysine salt (TNX1001-LLYS-NP01) was subjected to dynamic vapor sorption (DVS) analysis (FIG. 35). […] Similarly, the desorption curves display a clear decrease in mass between 30% and 20% RH. This behavior is consistent with a compound forming a hydrate species. Additionally, based on the water uptake of approximately 6.1% w/w at 70% RH, the hydrated form of the salt is likely a dihydrate species (FIG. 36).
# The sorption/desorption cycle was performed twice.
# [4] = Dissolution temperature in buffers (Crystal16) and estimated solubility at 25° C.
# Procedure: Three different buffer solutions were prepared according to European Pharmacopoeia procedures (pH 1.2), or by diluting commercially available concentrate buffer solutions (pH 4.5 and 6.8).
# Phosphate buffer at pH 6.8 was prepared by diluting a commercially available concentrate solution (Reagecon) with HPLC grade water. The final pH was adjusted using a 1 M NaOH solution.
# Acetate buffer at pH 4.5 was prepared by diluting a commercially available concentrate solution (Reagecon) with HPLC grade water. The final pH was adjusted using concentrated acetic acid and a 1 M NaOH solution.
# A buffer at pH 1.2 was prepared by mixing NaCl (0.2 M, 125 mL) and HCl (0.2 M, 212.5 mL) solutions followed by adjusting the volume to 500 mL. The pH was adjusted with a 1 M NaOH solution.
# The determination of the dissolution temperature was performed in the automatic reactor system Crystal16. The system allows for careful control of the temperature and is equipped with a turbidimeter enabling the detection of the complete dissolution of the solid. The proper amount of compound was accurately weighted in a 1.5 mL vial equipped with a magnetic stirring bar. The selected buffer solution was pre-cooled in a refrigerator and the proper volume was added to the vial. The suspension was placed in the automatic reactor system pre-cooled at 10° C. and stirred at 600 rpm. The temperature was kept constant for 5 minutes to allow the system to equilibrate. The temperature was then increased at 0.5° C./min until a clear solution was obtained. For each pH, four solutions with increasing concentration were prepared and subjected to the same temperature program.
# Although this is incorrect from a theoretical point of view, the closeness of the experimental value at 24° C. limited the error made by using this simple approximation.
# Although this is incorrect from a theoretical point of view, the closeness of the experimental value at 26° C. limited the error made by using this simple approximation.
# [5] = Solid form stability by XRPD (ambient conditions, humidity, drying)
# Procedure: as §1
# After 24 hours of stirring, the solid was collected and analyzed by XRPD, and a new diffraction pattern was observed (FIG. 18). This new pattern was labeled as TNX1001-LLYS-NP02. […] After the drying step, the sample was exposed to humidity for 24 hours and the diffractogram acquired again.
# From the experiments carried out with L-lysine in organic media, a second new diffraction pattern was also observed, in particular when an equimolar mixture of TNX1001-SM and L-lysine co-former was slurried at room temperature for 24 hours in Methanol or Dichloromethane (TNX1001-LLYS-NP02).
smiles,measurement,setting,value
CCN(CC)C(=O)SC[C@H](NC(=O)CC[C@H](N)C(=O)O)C(=O)NCC(=O)O.NCCCC[C@H](N)C(=O)O [TNX1001-LLYS-NP01],water solubility as compared to free carbamathione,[1],clear improvement
same,solid state stability (XRPD),[2]; one month at 25° C. and 60% RH,stable
same,solid state stability (XRPD),[2]; one month at 40° C. and 75% RH,stable
same,water uptake (DVS),[3]; at 70% RH,approximately 6.1 % w/w
same,water uptake and water release over two sorption/desorption cycles,[3]; hydrated and anhydrous species,reversibly
same,Solubility TNX1001-LYS,[4]; pH 1.2,Not stable. TNX1001
same,stability in buffer,"[4]; pH 1.2 (NaCl/HCl buffer), converted into the parent carbamathione",not stable
same,Tdiss.,"[4]; pH 1.2 buffer, Conc. TNX1001-LYS 297 mg/mL (79 after dilution)",Dissolve and re-precipitate
same,Tdiss.,"[4]; pH 1.2 buffer, Conc. TNX1001-LYS 349 mg/mL, after dilution to 93 mg/mL",Dissolves above 80 °C
same,Tdiss.,"[4]; pH 1.2 buffer, Conc. TNX1001-LYS 400 mg/mL, after dilution to 107 mg/mL",Dissolves above 80 °C
same,Tdiss.,"[4]; pH 1.2 buffer, Conc. TNX1001-LYS 455 mg/mL, after dilution to 121 mg/mL",Dissolves above 80 °C
same,solubility increase compared with free carbamathione,"[4]; pH 4.5, 25° C.",approximately 17%
same,Solubility TNX1001-LYS,"[4]; pH 4.5, 25° C., estimated by linear approximation, equivalent amount of TNX1001 dissolved",299 mg/mL of TNX1001
same,Tdiss.,"[4]; pH 4.5 acetate buffer, Conc. TNX1001-LYS 249 mg/mL",<10 °C
same,Tdiss.,"[4]; pH 4.5 acetate buffer, Conc. TNX1001-LYS 299 mg/mL",16 °C
same,Tdiss.,"[4]; pH 4.5 acetate buffer, Conc. TNX1001-LYS 356 mg/mL",26 °C
same,Tdiss.,"[4]; pH 4.5 acetate buffer, Conc. TNX1001-LYS 401 mg/mL",33 °C
same,solubility increase compared with free carbamathione,"[4]; pH 6.8, 25° C.",approximately 10%
same,Solubility TNX1001-LYS,"[4]; pH 6.8, 25° C., estimated by linear approximation, equivalent amount of TNX1001 dissolved",255 mg/mL of TNX1001
same,Tdiss.,"[4]; pH 6.8 phosphate buffer, Conc. TNX1001-LYS 199 mg/mL",<10 °C
same,Tdiss.,"[4]; pH 6.8 phosphate buffer, Conc. TNX1001-LYS 223 mg/mL",<10 °C
same,Tdiss.,"[4]; pH 6.8 phosphate buffer, Conc. TNX1001-LYS 340 mg/mL",24 °C
same,Tdiss.,"[4]; pH 6.8 phosphate buffer, Conc. TNX1001-LYS 397 mg/mL",33 °C
same,stability of the solid form under ambient conditions (XRPD),[5]; after 24 hours and up to 4 days,good stability; also recorded: stable
same,solid form after exposure of the dried sample to humidity (XRPD),"[5]; approximately 24 hours, ambient conditions",converted spontaneously to initial form TNX1001-LLYS-NP02; also recorded: reconversion of the NP01 form into the NP02 form
